# Test results published in patent US10028957B2, “Depot formulations” (DURECT CORPORATION, priority 2007, dated 2018).
# Test: Solvent capacity experiments (solvent added until single phase persists one week)
# Assay type: physicochemical
# Conditions: fixed PLGA/SAIB ratio, room temperature, weight percent of total final weight
# [1] = Example 7, PLGA 4700 Da, 65/35, hexanediol initiated
# [2] = Example 8, PLGA 6600 Da, 65/35, dodecanol initiated
SMILES,amount of solvent needed for a single phase solution that remained single phase for one week [1],amount of solvent needed for a single phase solution that remained single phase for one week [2]
"C[S+](C)[O-] [DMSO, dimethylsulfoxide]",42.64 wt %,31.22 wt %
"OCc1ccccc1 [BA, benzyl alcohol]",26.44 wt %,19.70 wt %
